The text below walks through data of patent US11229655B2, “Fulvestrant formulations” (Fresenius Kabi USA, LLC, priority 2014, dated 2022).

Molecules are shown by their SMILES. Converted amounts (≈) assume the structure as drawn. Where two headings read alike, the source gives them in different places.

The conditions of data set [1]: U.S. Pat. No. 6,774,122, cited from earlier work.
Data set [2] in a line: Fulvestrant solubility in castor oil based liquid formulations, HPLC assay. The data set is classed as physicochemical. The note with it: castor oil q.s., 10% w/v ethanol, 10% w/v benzyl alcohol. Here is the method: To determine the effect of other compounds on the solubility of fulvestrant in a castor oil vehicle containing 10% ethanol and 10% benzyl alcohol, several liquid formulations were prepared by mixing using standard techniques, as summarized in Table 1. Fulvestrant solubility in each formulation was determined by an HPLC assay.

The conditions of data set [3]: cited from earlier work.

For `C[C@]12CC[C@@H]3c4ccc(O)cc4C[C@@H](CCCCCCCCC[S+]([O-])CCCC(F)(F)C(F)(F)F)[C@H]3[C@@H]1CC[C@@H]2O` (stereo partly drawn) [Fulvestrant, 7α-[9-(4,4,5,5,5-pentafluoropentylsulfinyl)nonyl]oestra-1,3,5(10)-triene 3,17 β-diol], the “solubility of fulvestrant in a castor oil vehicle” value in data set [1] (castor oil vehicle containing 10% ethanol, 10% benzyl alcohol, 15% benzyl benzoate) is listed as 65 mg/mL. For the same molecule, the “solubility of fulvestrant in castor oil” value in data set [1] (castor oil) was 20 mg/mL. In addition, the solubility (in general, the dissolved amount per volume that the medium holds) in data set [2] (castor oil based liquid formulation, oil or lipid, 0.05% w/v polysorbate 80, read-out: Solubility) came out at 76.5 mg/mL (≈ 126 mM); in data set [2] (castor oil based liquid formulation, oil or lipid, 0.1% w/v polysorbate 80, read-out: Solubility) it was 82.5 mg/mL (≈ 136 mM); in data set [2] (castor oil based liquid formulation, oil or lipid, 0.16% w/v polysorbate 80, read-out: Solubility), 90 mg/mL (≈ 148 mM); in data set [2] (castor oil based liquid formulation, oil or lipid, 0.2% w/v polysorbate 80, read-out: Solubility), 95 mg/mL (≈ 157 mM); in data set [2] (castor oil based liquid formulation, oil or lipid, 15% w/v ethyl oleate, read-out: Solubility), 66.8 mg/mL (≈ 110 mM); in data set [2] (castor oil based liquid formulation, oil or lipid, 15% w/v isopropyl myristate, read-out: Solubility), 63.9 mg/mL (≈ 105 mM). The solubility in data set [2] (castor oil based liquid formulation, oil or lipid, 15% w/v isopropyl palmitate, read-out: Solubility) stood at 67.6 mg/mL (≈ 111 mM); in data set [2] (0.09% w/v polysorbate 80) it was 82.1 mg/mL (≈ 135 mM). Besides, the solubility in water entry in data set [3] is recorded as “practically insoluble in water”.
